Results as given in US7429473B2, “Diacylglycerol acyltransferase genes, proteins, and uses thereof” (Michigan State University, priority 2003, dated 2008).

Tested on: Euonymus alata diacylglycerol acetyltransferase (AcDAGAT), native enzyme activity in cell free homogenate of endosperm plus embryo
Assay: AcDAGAT assay with [1-14C]acetyl-CoA in cell free homogenate (CFH) of developing Euonymus alata seeds
Type: biochemical
Experimental: Characterization of acyltransferase activity by in vitro assays. Acyltransferase activity was assayed by incubating [^14C]acetyl-CoA with cell free extracts from developing Euonymus alata seeds and exogenous 1,2-diacylglycerol (DAG). Total lipids were extracted, radioactivity assayed, then the amount of label in the 1,2-diacyl-3-acetin fraction determined by TLC. There was a very high (greater than about 20-fold), largely soluble acetyl-CoA hydrolase activity that competed with the transferase for substrate.
All procedures were carried out on ice or at 4° C. Frozen embryo and endosperm tissue was added to two volumes of chilled buffer containing 0.3 M sucrose, 10 mM NaF, 5 mM MgCl2, 2 mM dithiothreitol, 1 mM EDTA and 40 mM Hepes -NaOH (pH 7.4), homogenized, and filtered through two layers of Miracloth. The residue was rehomogenized in two more volumes of buffer and filtered. The filtrates were combined and constitute the cell free homogenate (CFH). The CFH was frozen and stored at −70° C. until used and typically contained 12-17 mg protein/ml. Protein concentrations were estimated using the Bio-Rad protein assay, which is based on the Bradford method (1976), using bovine serum albumin as the standard.
The standard (Ac)DAGAT assay contained [1-^14C]acetyl-CoA (100 μM, 200,000 d.p.m.) plus 140 μl of homogenization buffer in a total volume of 200 μl. 1,2-dioleoyl-sn-glycerol (50 μg, 0.4 mM) was added as 1 μl of ethanol solution. The assay was initiated by adding 20 μl of CFH. The reaction was run at room temperature (25° C.) for 1S min and terminated by the addition of hot isopropanol (1 ml). Lipids were extracted with hexane and isopropanol as described by Hara and Radin (1978). The [^14C]lipid residue was dissolved in hexane and an aliquot assayed for radioactivity by liquid scintillation counting. The standard long-chain DAGAT assay contained 20 μM [1-^14C]palmitoyl-CoA and 20-40 μl of CFH and was run for 30 minutes: all other aspects were as for acetyl DAGAT assays.
Incubation of cell free homogenates (CFH) from developing Euonymus alata endosperm plus embryo tissues with [^14C]acetyl-CoA produced labeled lipids. […] Long-chain TAG elutes ahead of Ac-TAG in this solvent system. When this labeled band was recovered and analyzed by C 18 reversed-phase TLC, the radioactivity migrated with the mass bands corresponding to the major Ac-TAG molecular species, namely C16/C18 and C18/C18. When a unique exogenous diacylglycerol, 1,2-dihexanoyl-sn-glycerol, was added to the assays, a novel band appeared that co-chromatographed with the synthetic 3-acetyl-1,2-dihexanoin standard in both normal and reverse phase TLC systems. The migration of the standard was confirmed by GC analysis of recovered fractions from the TLC plates. […]

Structure (SMILES) | Km (Lineweaver-Burke reciprocal plot, CFH, 25° C.) [µM] | Vmax (estimate from acetyl-CoA concentration curve) (acetyl-CoA concentration curve, cell free extracts of developing seeds) | Vmax (acetyl-CoA varied, Lineweaver-Burke reciprocal plot, CFH) [nmoles/min/gfw] | average enhancement of AcDAGAT activity by exogenous sn-1,2-diolein (0.1-1.2 mM sn-1,2-diolein added, endogenous DAG present) [%]
CC(=O)SCCNC(=O)CCNC(=O)[C@H](O)C(C)(C)COP(=O)(O)OP(=O)(O)OC[C@H]1O[C@@H](n2cnc3c(N)ncnc32)[C@H](O)[C@@H]1OP(=O)(O)O [acetyl-CoA] | 100 | 120 nmoles/hour/gram fresh weight seed tissue | 2.5 | 
CCCCCCCC/C=C\CCCCCCCC(=O)OC[C@H](CO)OC(=O)CCCCCCC/C=C\CCCCCCCC [sn-1,2-diolein, 1,2-dioleoyl-sn-glycerol] |  |  |  | 30
